# Measured values reported in patent US20170101431A1, “NUCLEOSIDE DERIVATIVES FOR THE TREATMENT OF CANCER” (IDENIX PHARMACEUTICALS LLC, priority 2014, published 2017).
# Columns and labels:
# Type in all cases: cell-based
# CCRF-CEM = test: In vitro inhibition, CellTiter-Glo (CTG) assay, CCRF-CEM; settings: 72 hr exposure
# Protocol: (§1) Cells were grown in RPMI-1640 supplemented with L-Glutamine and 10% FBS of the following cancer cell lines:
# (§2) CCRF-CEM; CCRF-CEM-cytarabine resistant; HL-60;
# (§3) 18, 96 well plates of each cell line were seeded with the optimized number of cells per well in a total volume of 50 μL per well. The plates were left overnight. Plate wells were seeded with 100 μL media for media control. The following day, cells were exposed to test compounds as described below. At the same time as drug exposure, a CTG assay was conducted on the 18th plate for the 0 hr count.
# (§4) The compounds were added to cells and medium already on the plate to give desired final concentrations. 50 μL media were added to cell control wells, and 50 μL of mix added to vehicle control wells. 10 μM Doxorubicin was added to appropriate wells as control. Cells exposed to test compound were incubated at 37° C. for 72 hr followed by a CTG assay.
# (§5) At the end of the 72 hr exposure period, plates were removed for a CellTiter-Glo (CTG) assay from a 37° C., 5% CO2 incubator and placed on the bench at room temperature for 30 mins. 100 μL of CellTiter-Glo reagent was added and mixed for 2 mins, followed by a further 10 min incubation at room temperature. Luminescence was recorded using Synergy 4.0.
# [1] = tested on: CCRF-CEM-cytarabine resistant; test: In vitro inhibition, CellTiter-Glo (CTG) assay, CCRF-CEM-cytarabine resistant; settings: 72 hr exposure
# Protocol: as §1, §2, §3, §4, §5
# HL-60 = test: In vitro inhibition, CellTiter-Glo (CTG) assay, HL-60; settings: HL-60, 72 hr exposure
# Protocol: as §1, §2, §3, §4, §5
Structure (SMILES),IC50 (CCRF-CEM; Homo sapiens),IC50 ([1]; 72 h),"IC50 (HL-60; Homo sapiens, HL-60, 72 h)",IC50 (CCRF-CEM),IC50 [1],IC50 (HL-60),IC50 (HL-60; Homo sapiens)
"C[C@H](NP(=O)(OCc1ccc([N+](=O)[O-])s1)OC[C@H]1O[C@@H](n2ccc(N)nc2=O)[C@@H](O)[C@@H]1O)C(=O)OCc1ccccc1 (single isomer, unassigned) [24f (diastereoisomer 1)]",< 1000 nM,10 to 25 µM,10000 to 25000 nM,,,,
"C[C@H](NP(=O)(OCc1ccc([N+](=O)[O-])s1)OC[C@H]1O[C@@H](n2ccc(N)nc2=O)[C@@H](O)[C@@H]1O)C(=O)OCc1ccccc1 (single isomer, unassigned) [24f (diastereoisomer 2)]",,,,< 1000 nM,10 to 25 µM,10000 to 25000 nM,
"Nc1ccn([C@@H]2O[C@H](COP(=O)(NCc3ccccc3)OCc3ccc([N+](=O)[O-])o3)[C@@H](O)[C@@H]2O)c(=O)n1 (single isomer, unassigned) [25 (diastereoisomer 1)]",< 1000 nM,10 to 25 µM,1000 to 10000 nM,,,,
"Nc1ccn([C@@H]2O[C@H](COP(=O)(NCc3ccccc3)OCc3ccc([N+](=O)[O-])o3)[C@@H](O)[C@@H]2O)c(=O)n1 (single isomer, unassigned) [25 (diastereoisomer 2)]",,,,< 1000 nM,10 to 25 µM,1000 to 10000 nM,
"C[C@H](NP1(=O)OC[C@H]2O[C@@H](n3cnc4c(N)nc(Cl)nc43)[C@@H](F)[C@@H]2O1)C(=O)OCc1ccccc1 (single isomer, unassigned) [Compound 26a]",< 1000 nM,1 to 10 µM,< 1000 nM,,,,
"C[C@H](NP1(=O)OC[C@H]2O[C@@H](n3cnc4c(N)nc(Cl)nc43)[C@@H](F)[C@@H]2O1)C(=O)OCc1ccccc1 (single isomer, unassigned) [Compound 26b]",,,,< 1000 nM,1 to 10 µM,< 1000 nM,
"CCOC(=O)[C@H](C)NP1(=O)OC[C@H]2O[C@@H](n3cnc4c(N)nc(Cl)nc43)[C@@H](F)[C@@H]2O1 (stereo partly drawn) [Compound 10, Ethyl (2S)-2-[[(4aR6R,7S,7aR)-6-(6-amino-2-chloro-purin-9-yl)-7-fluoro-2-oxo-4a,6,7,7a-tetrahydro-4H-furo[3.2-d][1,3,2]dioxaphosphinin-2-yl]amino]propanoate]",< 1000 nM,,1000 to 10000 nM,,25 to 100 µM,,
"CCOC(=O)[C@H](C)NP1(=O)OC[C@H]2O[C@@H](n3cnc4c(N)nc(Cl)nc43)[C@@H](F)[C@@H]2O1 (stereo partly drawn) [Compound 11, Ethyl (2S)-2-[[(4aR6R,7S,7aR)-6-(6-amino-2-chloro-purin-9-yl)-7-fluoro-2-oxo-4a,6,7,7a-tetrahydro-4H-furo[3.2-d][1,3,2]dioxaphosphinin-2-yl]amino]propanoate]",,,,< 1000 nM,1 to 10 µM,< 1000 nM,
"Nc1ccn([C@@H]2O[C@H](COP(=O)(OCc3cnc([N+](=O)[O-])s3)OCc3cnc([N+](=O)[O-])s3)[C@@H](O)[C@@H]2O)c(=O)n1 [Compound 24b, [(2R,3S,4S,5R)-5-(4-amino-2-oxo-pyrimidin-1-yl)-3,4-dihydroxy-tetrahydrofuran-2-yl]methyl bis[(2-nitrothiazol-5-yl)methyl]phosphate]",< 1000 nM,,,,10 to 25 µM,,< 1000 nM
"Cn1c(COP(=O)(OCc2cnc([N+](=O)[O-])s2)OC[C@H]2O[C@@H](n3ccc(N)nc3=O)[C@@H](O)[C@@H]2O)cnc1[N+](=O)[O-] (stereo partly drawn) [Compound 24c, [(2R,3S,4S,5R)-5-(4-amino-2-oxo-pyrimidin-1-yl)-3,4-dihydroxy-tetrahydrofuran-2-yl]methyl (3-methyl-2-nitro-imidazol-4-yl)methyl (2-nitrothiazol-5-yl)methyl phosphate]",< 1000 nM,,,,10 to 25 µM,,< 1000 nM
"Nc1ccn([C@@H]2O[C@H](COP(=O)(OCc3ccc([N+](=O)[O-])o3)OCc3ccc([N+](=O)[O-])o3)[C@@H](O)[C@@H]2O)c(=O)n1 [Compound 24e, [(2R,3S,4S,5R)-5-(4-amino-2-oxo-pyrimidin-1-yl)-3,4-dihydroxy-tetrahydrofuran-2-yl]methyl bis[(5-nitro-2-furyl)methyl]phosphate]",< 1000 nM,,,,10 to 25 µM,,< 1000 nM
